Test results reported in PubChem BioAssay (NCI).
Values joined by “and” are separate entries in the source; they are usually repeats but may differ in a detail not shown here. Equal entries are not always repeated.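 Each compound was tested at five concentrations against cells in 96-well plates for 48 hours. Abbreviation: GI50, concentration required for 50% inhibition of growth. TGI marks complete inhibition of growth.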

Legend:
Experiment in all cases: inhibition of tumour cell growth, NCI panel, 48 h
M14 melanoma = system: M14 melanoma
HCC-2998 colon = system: HCC-2998 colon
SK-MEL-2 melanoma = system: SK-MEL-2 melanoma
HOP-92 NSCLC = system: HOP-92 NSCLC
786-0 renal = system: 786-0 renal
U251 CNS = system: U251 CNS
A549 NSCLC = system: A549 NSCLC
LOX IMVI melanoma = system: LOX IMVI melanoma
TK-10 renal = system: TK-10 renal
MCF7 breast = system: MCF7 breast

Row | SMILES | TGI (M14 melanoma) | TGI (HCC-2998 colon) | TGI (SK-MEL-2 melanoma) | TGI (HOP-92 NSCLC) | TGI (786-0 renal) | TGI (U251 CNS) | TGI (A549 NSCLC) | TGI (LOX IMVI melanoma) | TGI (TK-10 renal) | TGI (MCF7 breast) | GI50 (M14 melanoma) [µM] | GI50 (HCC-2998 colon) [µM] | GI50 (SK-MEL-2 melanoma) [µM] | GI50 (HOP-92 NSCLC) [µM] | GI50 (786-0 renal) [µM] | GI50 (U251 CNS) [µM] | GI50 (A549 NSCLC) | GI50 (LOX IMVI melanoma) [µM] | GI50 (TK-10 renal) [µM] | GI50 (MCF7 breast) [µM]
1 | CC(=O)OCc1ccc(O)c(C=O)c1 | > 100 µM | > 100 µM | > 100 µM | > 100 µM | > 100 µM | > 100 µM | > 100 µM | > 100 µM | > 100 µM | > 100 µM |  |  |  |  |  |  |  |  |  | 
2 | Cc1ccc(C(=O)N2CCN(C(=O)c3ccc(C)cc3)c3ccccc32)cc1 | > 100 µM | 40.9 µM | > 39.6 µM | > 61.2 µM | 43.2 µM | 24.9 µM | > 100 µM | > 100 µM | > 100 µM | > 100 µM |  |  |  |  |  |  |  |  |  | 
3 | Clc1cccc(N2CCN(CCN3CCc4c([nH]c5ccccc45)C3c3cccnc3)CC2)c1 (centres undefined) | > 100 µM | > 76.9 µM | > 100 µM | > 86.3 µM | > 73.5 µM | > 100 µM | > 100 µM | > 93.1 µM | > 100 µM | > 100 µM |  |  |  |  |  |  |  |  |  | 
4 | CCCOC(=O)N[C@H]1CCc2cc(OC)c(OC)c(OC)c2-c2ccc(SC)c(=O)cc21 |  | 4.92 µM | 90.1 µM | 16.1 µM | > 100 µM | > 34.1 µM | > 100 µM | > 42.4 µM | > 70.5 µM | > 100 µM | < 0.01 | < 0.01 | 0.463 | < 0.0182 | < 0.01 | < 0.01 | < 0.01 µM | < 0.01 | 3.61 | < 0.01
5 | Fc1cccc(CSc2ncnc3c2ncn3C2CCCS2)c1 (centres undefined) | 33.7 µM | 42.2 µM | 40.3 µM | 67.4 µM | 51.5 µM | 42.8 µM | > 100 µM | 34.9 µM | > 100 µM | 63.7 µM |  |  |  |  |  |  |  |  |  | 
6 | CCOc1ccc2nc(-c3cccc(OCC(=O)NC(C)C)c3)nc(Nc3ccc(-c4cn[nH]c4)cc3)c2c1 | 10.5 µM | 7.91 µM | 5.31 µM | 3.29 µM | 2.63 µM | 2.15 µM | 3.54 µM | 2.33 µM | 5.2 µM | 2.11 µM | 1.22 | 1.45 | 1.56 | 0.452 | 0.553 | 0.431 | 0.769 µM | 0.491 | 1.89 | 0.348
7 | C[C@]1(C(=O)O)N[C@H](C(=O)O)CS1 | > 1000 µM | > 1000 µM | > 1000 µM | > 1000 µM | > 1000 µM | > 1000 µM | > 1000 µM | > 1000 µM | > 1000 µM | > 1000 µM | > 1000 | 921 | > 1000 | > 1000 | > 1000 | > 1000 | > 1000 µM | > 1000 | > 1000 | > 1000
8 | OC(C1CO1)C(O)C1CO1 (centres undefined) | 94.6 µM and 165 µM | 87.9 µM and 138 µM | 116 µM and 345 µM | 146 µM and 219 µM | 48.5 µM and 139 µM | 114 µM and 168 µM | 150 µM and 235 µM | 78.3 µM and 233 µM | 150 µM and 404 µM | 140 µM and 78.2 µM | 28.7 | 60.5 | 137 | 56.1 | 18.7 | 7.78 | 16.5 µM and 8.67 µM | 12 | 182 | 3.89
